From article PMC3679140, “Synthesis of Indole Derived Protease-Activated Receptor 4 Antagonists and Characterization in Human Platelets” (PLoS ONE, 2013)

Experiments:
PAR4 [1] = target: T1, PAR4 (Homo sapiens, UniProt Q96RI0); experiment: PAR4-AP mediated platelet aggregation (light transmittance); assay type: cell-based; conditions: 200 µM PAR4-AP; compound 10 min before; Figure 6
T1 construct: Human platelets express both PAR1 and PAR4; endogenous in cells; host or cells: washed human platelets from volunteer donors
T1 sequence (Q96RI0 18-385): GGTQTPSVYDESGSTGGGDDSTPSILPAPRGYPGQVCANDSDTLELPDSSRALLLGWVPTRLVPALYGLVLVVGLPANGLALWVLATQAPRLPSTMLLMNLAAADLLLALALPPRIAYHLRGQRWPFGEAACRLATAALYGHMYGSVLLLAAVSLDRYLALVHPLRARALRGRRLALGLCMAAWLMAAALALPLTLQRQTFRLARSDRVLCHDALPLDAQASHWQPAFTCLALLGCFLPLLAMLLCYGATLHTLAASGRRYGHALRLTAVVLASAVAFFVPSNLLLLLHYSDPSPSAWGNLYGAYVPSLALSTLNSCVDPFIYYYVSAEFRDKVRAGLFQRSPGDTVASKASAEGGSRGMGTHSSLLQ
Protocol: (§1) Briefly, washed human platelets were prepared to a final concentration of 2.0×10^8 platelets/mL in Tyrode’s buffer containing 0.1% BSA. Compounds or DMSO control were added 10 minutes prior to stimulation with either PAR1-AP or PAR4-AP. The final DMSO concentration was 0.1%. Light transmittance was recorded by a Chrono-Log Model 700 Aggregometer.
(§2) The percent of light transmitted as reported by the aggregometer was recorded in GraphPad PRISM v.5.0. 100% light transmission signifies full platelet aggregation.

[2] = tested on: thrombin mediated platelet GPIIbIIIa activation; experiment: Flow cytometry: thrombin mediated GPIIbIIIa activation in washed platelets; assay type: cell-based, human; conditions: for Addition of the effect of RWJ-56110 on thrombin and the effect of the compound on PAR1-AP: sum of separate inhibitory effects, 1 µM compound, 10 µM RWJ-56110
Protocol: (§3) Briefly, 60 µL of washed platelets at a concentration of 1.5×10^7 platelets/mL were added to polystyrene tubes. Anti-CD62P antibody or PAC-1 antibody were diluted (per manufacturer protocol) in Tyrode’s buffer containing 0.1% BSA. 40 µL of diluted antibody was added to the platelets and allowed to bind for 5 minutes. Platelets were pre-treated with indicated concentrations of antagonist or DMSO control for 5 minutes followed by addition of PAR1-AP or PAR4-AP for 10 minutes. Platelet activity was quenched by the addition ice cold 1.5% paraformaldehyde followed by dilution in 1X phosphate buffered saline. The final DMSO concentration was 0.5%. Platelets were stored up to 18 hours at 4°C before flow cytometric analysis. Analysis was carried out on a BD FACS Canto II (Franklin Lakes, NJ). Fluorescent intensity was determined for 100,000 events within the platelet gate. Data was collected and analyzed via FACS DiVa software.
(§4) 100% max response was determined for each individual as the DMSO treated control stimulated with either 200 µM PAR4-AP, 20 µM PAR1-AP, or 10 nM thrombin. Samples treated with antagonist were normalized as a percentage of the DMSO treated control. Normalized data was plotted in GraphPad PRISM v.5.0. Dose response curves and subsequent IC50 values were generated using the ‘log(inhibitor) vs. response variable slope’ parameter. Data plotted is mean±S.E.M. or mean±S.D.

PAR4 [3] = target: T1, PAR4; experiment: Flow cytometry: PAR4-AP mediated GPIIbIIIa activation (PAC-1 binding) in washed platelets; assay type: cell-based; conditions: for IC50: 200 µM PAR4-AP, compound 5 min before, normalized to DMSO control, Figure 4; for Extent of antagonism of PAR4 mediated platelet response / GPIIbIIIa activation: maximal (200 µM) PAR4-AP, up to 10 µM compound
Protocol: as §3, with “Platelet activity was quenched by the addition ice cold 1.5% paraformaldehyde followed by dilution in 1X phosphate buffered saline.” left out
as §4

PAR4 [4] = target: T1, PAR4; experiment: High-throughput platelet calcium mobilization assay (PAR4-AP stimulated); assay type: cell-based; conditions: for Emax at 10 µM: 10 µM compound 6 min prior to 80 µM PAR4-AP, Figure 2D, read-out: PAR4 mediated platelet calcium mobilization, percent of the maximum response
Protocol: Washed human platelets were prepared via standard procedure and suspended in Tyrode’s buffer containing 0.1% BSA. Platelets were dye loaded for 1 hour with Fluo4-AM in calcium assay buffer (1X HBSS without calcium or magnesium, 20 mM HEPES, 2.5 mM probenecid, 1 mM EGTA, 0.1% BSA). The calcium assay buffer containing dye is mixed with platelets to yield a final concentration of 2.5 µg/mL Fluo4-AM and 1.0×10^8 platelets/mL. 60 µL of dye loaded platelets were added to each well of a NUNC 384 well plate black optical bottom plate (Thermo, Rochester, NY). Fluorescence measurements were recorded on a Functional Drug Screening System (FDSS) 6000, Hamamatsu (Hamamatsu, Japan) at 37°C. […] Compounds were injected by the FDSS and occurred simultaneously across each plate. Experiments reported were performed in triplicate, on the same plate, from the indicated number of donors. 480∶540 (ex:em) was measured each second for a total of 12 minutes. The final concentration of DMSO in the assay was 0.5%.
The difference between basal (defined as t0) and maximal relative fluorescence unit (RFU) values (ΔRFUs) for ex:em 480∶540 was determined for each well. The triplicate ΔRFU for DMSO treated control wells stimulated with 80 µM PAR4-AP was averaged and the average value ΔC was set to 100% max response for each plate. Each well was subsequently normalized as a percent of the ΔC control (value/ΔC×100). Normalized data was plotted in GraphPad PRISM v.5.0.

PAR1 [5] = target: T2, PAR1 (Homo sapiens, UniProt P25116); experiment: Flow cytometry: PAR1-AP mediated GPIIbIIIa activation (PAC-1 binding) in washed platelets; assay type: cell-based; conditions: 20 µM PAR1-AP
T2 construct: Human platelets express both PAR1 and PAR4; endogenous in cells; host or cells: washed human platelets from volunteer donors
T2 sequence (P25116 22-425): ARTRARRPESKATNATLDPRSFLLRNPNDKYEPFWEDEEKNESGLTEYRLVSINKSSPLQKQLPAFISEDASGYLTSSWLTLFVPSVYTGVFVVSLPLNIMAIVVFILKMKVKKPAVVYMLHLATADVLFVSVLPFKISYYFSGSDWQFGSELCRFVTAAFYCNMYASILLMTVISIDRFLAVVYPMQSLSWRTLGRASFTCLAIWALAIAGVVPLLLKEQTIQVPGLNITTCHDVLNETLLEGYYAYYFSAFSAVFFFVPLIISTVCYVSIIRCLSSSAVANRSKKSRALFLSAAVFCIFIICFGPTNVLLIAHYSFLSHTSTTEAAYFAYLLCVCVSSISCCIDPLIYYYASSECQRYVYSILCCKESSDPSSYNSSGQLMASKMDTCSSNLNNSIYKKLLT
Protocol: as §3, with “Platelet activity was quenched by the addition ice cold 1.5% paraformaldehyde followed by dilution in 1X phosphate buffered saline.” left out
as §4

PAR1 [6] = target: T2, PAR1; experiment: PAR1-AP mediated platelet aggregation (light transmittance); assay type: cell-based; conditions: 20 µM PAR1-AP; compound 10 min before; Figure 6
Protocol: as §1, §2

PAR4 [7] = target: T1, PAR4; design: method as in PMID 12083482; conditions: cited from earlier work
PAR4 [8] = target: T1, PAR4; experiment: Flow cytometry: PAR4-AP mediated P-selectin expression (anti-CD62P binding) in washed platelets; assay type: cell-based
Protocol: as §3, with “Platelet activity was quenched by the addition ice cold 1.5% paraformaldehyde followed by dilution in 1X phosphate buffered saline.” left out
as §4

[9] = 1 µM compound + 10 µM RWJ-56110, 10 nM thrombin

Row | Inhibition of PAR4 mediated platelet aggregation (PAR4 [1]) | IC50 (PAR4 [3]) | Extent of antagonism of PAR4 mediated platelet response / GPIIbIIIa activation (PAR4 [3]) | Emax at 10 µM (PAR4 [4]) | Compound | Reduction of thrombin mediated GPIIbIIIa activation in combination with RWJ-56110 [2, 9] | Addition of the effect of RWJ-56110 on thrombin and the effect of the compound on PAR1-AP [2] | other results
1 | non-significantly | 1000 ± 1100 nM | fully antagonize | < 50% | CCOC(=O)c1ccc(-c2cn(Cc3ccccn3)c3ccccc23)cc1 [Compound 3] |  |  | Reduction of thrombin mediated GPIIbIIIa activation in combination with RWJ-56110 ([2]; 3.16 µM compound + 10 µM RWJ-56110, 10 nM thrombin): 14±2%; Reduction of PAR1 mediated GPIIbIIIa activation (PAR1 [5]; 3.16 µM compound): 7.2±1.3%
2 | significantly inhibit PAR4 | 170 ± 1 nM | fully antagonize | < 50% | CCOC(=O)c1ccc(-c2cn(Cc3ccccc3)c3ncccc23)cc1 [Compound 5] | 17±2% |  | Inhibition of PAR1 mediated platelet aggregation (PAR1 [6]): not PAR1 mediated platelet aggregation; Reduction of PAR1 mediated GPIIbIIIa activation (PAR1 [5]; 1 µM compound): 7.2±1.4%
3 |  |  |  |  | NCC[C@H](NC(=O)[C@H](Cc1ccc(F)c(F)c1)NC(=O)Nc1ccc2c(CN3CCCC3)cn(Cc3c(Cl)cccc3Cl)c2c1)C(=O)NCc1ccccc1 [RWJ-56110, reference compound] |  |  | Inhibition of thrombin mediated GPIIbIIIa activation, compound alone ([2]; 10 µM RWJ-56110 alone, 10 nM thrombin): 18.4±5.4%
4 |  |  |  |  | CCOC(=O)c1ccc(-c2cn(Cc3ccccc3)c3ccccc23)cc1 [Compound 1] | 37.1±6.4% | 32.5±6.1% | 

Row | Compound | Inhibition of PAR4 mediated platelet aggregation (PAR4 [1]) | IC50 (PAR4 [3]) | Extent of antagonism of PAR4 mediated platelet response / GPIIbIIIa activation (PAR4 [3]) | Emax at 10 µM (PAR4 [4]) | Reduction of thrombin mediated GPIIbIIIa activation in combination with RWJ-56110 [2, 9] | Addition of the effect of RWJ-56110 on thrombin and the effect of the compound on PAR1-AP [2] | other results
5 | CCOC(=O)c1ccc(-c2nn(Cc3ccccc3)c3ccccc23)cc1 [YD-3, ethyl 4-(1-benzyl-1H-indazol-3-yl)benzoate, reference compound] |  | 26 ± 1 nM |  |  | 42.9±9.7% | 26.8±6.0% | Mechanism of action against PAR4 by platelet aggregation (PAR4 [7]): competitive in nature; Inhibition time course of PAR4-AP calcium mobilization (PAR4 [4]; 10 µM YD-3, increasing treatment times, then 80 µM PAR4-AP, Figure 2B): significant inhibition by YD-3 occurred as early as 1 minute; IC50 (PAR4 [8]; 200 µM PAR4-AP, from raw mean fluorescent intensity values, Figure S4): 16.4 ± 1.1 nM; Mechanism of action against PAR4 (shift of PAR4-AP concentration response curve) (PAR4 [8]; P-selectin expression, twelve point PAR4-AP CRCs with increasing antagonist, Figure 7): competitive mechanism of action
